Source: patent publication US20080051327A1, “Crystals of an Aurora-A Tpx2 Complex, Tpx2 Binding Site of Aurora-A, Aurora-A Ligands and Their Use” (EMBL, priority 2003, published 2008)
Each block holds one molecule with its values, some of them ahead of it.

Key:
Aurora A [1] = target: T1, Aurora A (Homo sapiens, UniProt O14965); experiment: luminescence ATP detection kinase assay (EasyLite-Kinase), Aurora without TPX2; format: biochemical; conditions: for IC50: 150 nM Aurora without TPX2, 20 μM ATP, 100 μM Kemptide, 20 min room temperature
T1 sequence (O14965 1-403): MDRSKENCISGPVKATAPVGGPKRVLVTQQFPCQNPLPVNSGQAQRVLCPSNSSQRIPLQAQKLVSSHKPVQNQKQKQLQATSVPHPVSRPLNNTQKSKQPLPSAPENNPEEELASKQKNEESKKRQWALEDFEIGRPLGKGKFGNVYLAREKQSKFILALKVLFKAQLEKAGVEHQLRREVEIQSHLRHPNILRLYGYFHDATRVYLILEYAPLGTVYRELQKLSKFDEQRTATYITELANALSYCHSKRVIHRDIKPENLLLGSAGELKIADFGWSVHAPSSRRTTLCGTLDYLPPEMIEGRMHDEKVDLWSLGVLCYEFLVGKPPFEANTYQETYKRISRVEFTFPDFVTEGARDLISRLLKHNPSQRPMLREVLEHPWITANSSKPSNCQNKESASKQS
Procedure: (§1) The ability of compounds (7) and (12) to inhibit Aurora A was tested in a luminescence ATP detection assay system for kinase applications. Briefly, the compound of the present invention was added to a solution of Aurora A in HEPES buffer (150 nM Aurora +/− TPX2, 25 mM HEPES pH 7.4, 5 mM MgCl2, 0.01% Tween 20; 0.1% BSA; 100 μM Kemptide [Promega Corporation, Madison, Wis.]); final assay concentrations). The addition of an ATP solution (20 μM final concentration) initiated the reaction. The reaction was carried out for 20 min at room temperature and terminated by the addition of equal volumes of EasyLite Solution (Perkin Elmer Corporation, Boston, Mass.) followed by monitoring the luminescence in a Wallac Envision plate reader (Perkin Elmer Corporation, Boston, Mass.). The EasyLite-Kinase® is an ATP monitoring system based on firely (Photinus pyralis) luciferase for the evaluation of kinase activity. The system relies on the consumption of ATP during a kinase reaction and is commercially available.

Aurora + TPX2 = target: T2, Aurora + TPX2 (Homo sapiens, UniProt O14965); experiment: luminescence ATP detection kinase assay (EasyLite-Kinase), Aurora + TPX2; format: biochemical; conditions: 150 nM Aurora with TPX2, 20 μM ATP, 100 μM Kemptide, 20 min room temperature
T2 sequence (O14965 1-403): T1 sequence (O14965 1-403)
Procedure: as §1

protein kinase A, PKA = protein kinase A, PKA (Homo sapiens, UniProt P17612); experiment: luminescence ATP detection kinase assay, PKA counter-test; format: biochemical
Aurora A [2] = target: T1, Aurora A; experiment: phosphatase assay, PP1 treatment of Aurora-A, Western blot; format: biochemical; conditions: TPX2 protein 3 μM, Aurora-A 2 μM, PP1 0.5 h at 30° C., FIG. 1E
Procedure: Samples were diluted in phosphatase buffer (50 mM Tris-HCl pH 7, 0.1 mM EDTA, 1 mM MnCl2, 5 mM caffeine, 5 mM DTT, 0.025% Tween 20) and incubated in the absence or presence of PP1 (α isoform, NEB) for 0.5 h at 30° C. Afterwards proteins were separated by SDS-PAGE and analyzed by Western blotting with anti-Aurora-A or anti-phospho-Aurora-A (Cell Signalling, 1:10000 dilution).

Aurora A [3] = target: T1, Aurora A; experiment: immunoprecipitation from mitotic HeLa cell extract; format: binding; conditions: GST fusion proteins 1 μM, FIG. 1B
Procedure: HeLa cells (CCL2; ATCC, Manassas, Va.) were grown in 10% fetal calf serum (FCS) and 2 mM L-glutamine in modified Eagle's medium at 37° C. and 5% CO2. Cells were arrested in S phase using a double thymidine (2 mM) block as described (Stein, 1994) and released from S phase by washing away the thymidine. After 10 h, cells were trypsinized, incubated for 10 min in ice-cold lysis buffer (25 mM Tris pH 7.6, 200 mM NaCl, 1% Triton, protease inhibitors), and centrifuged for 10 min at 15,000 g.
For coating beads with anti-GST, 6 μg of antibody were incubated with 20 μl of protein A-conjugated Dynabeads 280 (Dynal) in a total volume of 100 μl PBS-T (PBS, 0.1% Triton X-100), for at least 1 h at 4° C. The beads were washed twice with PBS-T and twice with HeLa cells lysis buffer or CSF-XB (10 mM Hepes pH 7.7, 50 mM sucrose, 100 mM KCl, 2 mM MgCl2, 0.1 mM CaCl2 and 5 mM EGTA). 50 μl extract was incubated with GST, GST TPX2 1-43, GST TPX2 15-43, GST TPX2 Xenopus or GST TPX2(1-39) Xenopus proteins (final concentrations: 250 nM Xenopus; 1 μM HeLa) in the absence or presence of RanQ69L-GTP (16 μm) for 15 minutes at 20° C. and then added to the beads. […] The samples were then subjected to gel electrophoresis and analyzed by Western blotting with anti-GST, anti-Xenopus TPX2, anti-Xenopus Aurora-A or anti-human Aurora-A.

Aurora A [4] = target: T1, Aurora A; experiment: in vitro kinase assay, phosphorylation of histone H3 (autoradiography); format: biochemical; set-up: were incubated with full length Aurora-A or AuroraΔN in kinase buffer; made in house; host or cells: bacteria (printed only for the full-length protein used as immunogen); conditions: full length Aurora-A, TPX2 protein at 4 μM, FIG. 1C

inhibition of Aurora (in words) (Aurora A [1]): inhibited Aurora significantly | IC50 (Aurora A [1]): 79 µM | IC50 (Aurora + TPX2): > 500 µM | IC50 (protein kinase A, PKA): > 500 µM
Molecule: OCc1cn(CCCCc2ccccn2)c2ccc(Oc3ccc(O)cc3)cc12 [(7)]

inhibition of Aurora (in words) (Aurora A [1]): inhibited Aurora significantly | IC50 (Aurora A [1]): 37 µM | IC50 (Aurora + TPX2): 37 µM | IC50 (protein kinase A, PKA): > 500 µM
Molecule: COC(=O)C(CC(=O)NCc1cn(CCCCc2ccccn2)c2ccc(Oc3ccc(O)cc3)cc12)NC(C)=O (stereo not drawn) [(12), 3-N-aspartylaminomethyl-5-O-p-hydroxyphenyl-1-N-(4-pyridylbutyl)-indole]

interaction with Aurora-A in HeLa extract (Aurora A [3]): unable to do so
Molecule: TPX2(15-43): shorter construct of human TPX2 encompassing residues 15-43 (DFINFSSLDDEGDTQNIDSWFEEKANLEN)
protection of Aurora-A from dephosphorylation by PP1 (Aurora A [2]): fully dephosphorylated as in the absence of TPX2 altogether

protection of Aurora-A from dephosphorylation by PP1 (Aurora A [2]): prevents dephosphorylation of Thr288AUR
B1: Full-length TPX2: full-length TPX2 protein, specific activator of Aurora-A (protein, UniProt Q9ULW0 1-747, looked up)
chain: MSQVKSSYSYDAPSDFINFSSLDDEGDTQNIDSWFEEKANLENKLLGKNGTGGLFQGKTPLRKANLQQAIVTPLKPVDNTYYKEAEKENLVEQSIPSNACSSLEVEAAISRKTPAQPQRRSLRLSAQKDLEQKEKHHVKMKAKRCATPVIIDEILPSKKMKVSNNKKKPEEEGSAHQDTAEKNASSPEKAKGRHTVPCMPPAKQKFLKSTEEQELEKSMKMQQEVVEMRKKNEEFKKLALAGIGQPVKKSVSQVTKSVDFHFRTDERIKQHPKNQEEYKEVNFTSELRKHPSSPARVTKGCTIVKPFNLSQGKKRTFDETVSTYVPLAQQVEDFHKRTPNRYHLRSKKDDINLLPSKSSVTKICRDPQTPVLQTKHRARAVTCKSTAELEAEELEKLQQYKFKARELDPRILEGGPILPKKPPVKPPTEPIGFDLEIEKRIQERESKKKTEDEHFEFHSRPCPTKILEDVVGVPEKKVLPITVPKSPAFALKNRIRMPTKEDEEEDEPVVIKAQPVPHYGVPFKPQIPEARTVEICPFSFDSRDKERQLQKEKKIKELQKGEVPKFKALPLPHFDTINLPEKKVKNVTQIEPFCLETDRRGALKAQTWKHQLEEELRQQKEAACFKARPNTVISQEPFVPKKEKKSVAEGLSGSLVQEPFQLATEKRAKERQELEKRMAEVEAQKAQQLEEARLQEEEQKKEELARLRRELVHKANPIRKYQGLEIKSSDQPLTVPVSPKFSTRFHC
modifications: full-length
stimulation of histone H3 phosphorylation by Aurora-A (Aurora A [4]): increases the activity of the kinase, but appears less effective than the fragment
